Results: PubChem BioAssay (NCI)
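Cells were grown in 96-well plates and exposed to each compound for 48 hours at five concentrations; endpoints were interpolated linearly between bracketing concentrations, or set to the highest concentration if not reached. TGI is the concentration that stops growth completely.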

Tests used:
Assay in all cases: DTP human tumour cell line panel, 48 h
NCI-H522 lung = system: NCI-H522 lung
SK-MEL-28 melanoma = system: SK-MEL-28 melanoma
A549 NSCLC = system: A549 NSCLC
DMS 273 small cell lung = system: DMS 273 small cell lung
HCC-2998 colon = system: HCC-2998 colon
UO-31 renal = system: UO-31 renal
DLD-1 colon = system: DLD-1 colon
SNB-78 CNS = system: SNB-78 CNS
SW-620 colon = system: SW-620 colon
SK-MEL-5 melanoma = system: SK-MEL-5 melanoma
HCT-15 colon = system: HCT-15 colon
HCT-116 colon = system: HCT-116 colon
HL-60(TB) leukemia = system: HL-60(TB) leukemia
TK-10 renal = system: TK-10 renal
SF-268 CNS = system: SF-268 CNS
SNB-19 CNS = system: SNB-19 CNS
M19-MEL melanoma = system: M19-MEL melanoma
OVCAR-5 ovarian = system: OVCAR-5 ovarian
RPMI-8226 leukemia = system: RPMI-8226 leukemia
SNB-75 CNS = system: SNB-75 CNS
EKVX NSCLC = system: EKVX NSCLC
HOP-62 NSCLC = system: HOP-62 NSCLC
K-562 leukemia = system: K-562 leukemia
COLO 205 colon = system: COLO 205 colon
HT29 colon = system: HT29 colon
SN12C renal = system: SN12C renal
OVCAR-4 ovarian = system: OVCAR-4 ovarian
CCRF-CEM leukemia = system: CCRF-CEM leukemia
NCI-H460 lung = system: NCI-H460 lung
ACHN renal = system: ACHN renal
MOLT-4 leukemia = system: MOLT-4 leukemia
U251 CNS = system: U251 CNS
DMS 114 small cell lung = system: DMS 114 small cell lung
KM12 colon = system: KM12 colon
OVCAR-3 ovarian = system: OVCAR-3 ovarian
UACC-257 melanoma = system: UACC-257 melanoma
MALME-3M melanoma = system: MALME-3M melanoma
SF-295 CNS = system: SF-295 CNS
786-0 renal = system: 786-0 renal
SR leukemia = system: SR leukemia
NCI-H226 lung = system: NCI-H226 lung
XF 498 CNS = system: XF 498 CNS
OVCAR-8 ovarian = system: OVCAR-8 ovarian
SK-MEL-2 melanoma = system: SK-MEL-2 melanoma
CAKI-1 renal = system: CAKI-1 renal
SF-539 CNS = system: SF-539 CNS
LOX IMVI melanoma = system: LOX IMVI melanoma
NCI-H23 lung = system: NCI-H23 lung
RXF 393 renal = system: RXF 393 renal
A498 renal = system: A498 renal
HOP-92 NSCLC = system: HOP-92 NSCLC
SK-OV-3 ovarian = system: SK-OV-3 ovarian
IGROV1 ovarian = system: IGROV1 ovarian
UACC-62 melanoma = system: UACC-62 melanoma
KM20L2 colon = system: KM20L2 colon
LXFL 529 NSCLC = system: LXFL 529 NSCLC
M14 melanoma = system: M14 melanoma

Q: For `COc1ccccc1/C=C1\C(=O)N(C(=O)c2ccc(NC(C)=O)cc2)N=C1C`, which TGI (NCI-H522 lung) is on record?
A: > 100 µM

Q: What about the TGI (SK-MEL-28 melanoma) of the same molecule?
A: > 100 µM

Q: And the TGI (A549 NSCLC)?
A: > 100 µM

Q: What about the TGI (DMS 273 small cell lung) of the same molecule?
A: > 100 µM

Q: What about the TGI (HCC-2998 colon) of the same molecule?
A: > 100 µM

Q: And the TGI (UO-31 renal)?
A: > 100 µM

Q: What about the TGI (DLD-1 colon) of the same molecule?
A: > 100 µM

Q: What about the TGI (SNB-78 CNS) of the same molecule?
A: > 100 µM

Q: And the TGI (SW-620 colon)?
A: > 100 µM

Q: And the TGI (SK-MEL-5 melanoma)?
A: > 100 µM

Q: And the TGI (HCT-15 colon)?
A: > 100 µM

Q: And the TGI (HCT-116 colon)?
A: > 100 µM

Q: And the TGI (HL-60(TB) leukemia)?
A: > 100 µM

Q: And the TGI (TK-10 renal)?
A: > 100 µM

Q: What about the TGI (SF-268 CNS) of the same molecule?
A: > 100 µM

Q: And the TGI (SNB-19 CNS)?
A: > 100 µM

Q: And the TGI (M19-MEL melanoma)?
A: > 100 µM

Q: What about the TGI (OVCAR-5 ovarian) of the same molecule?
A: > 100 µM

Q: What about the TGI (RPMI-8226 leukemia) of the same molecule?
A: > 100 µM

Q: And the TGI (SNB-75 CNS)?
A: > 100 µM

Q: And the TGI (EKVX NSCLC)?
A: > 100 µM

Q: What about the TGI (HOP-62 NSCLC) of the same molecule?
A: > 100 µM

Q: And the TGI (K-562 leukemia)?
A: > 100 µM

Q: What about the TGI (COLO 205 colon) of the same molecule?
A: > 100 µM

Q: What about the TGI (HT29 colon) of the same molecule?
A: > 100 µM

Q: What about the TGI (SN12C renal) of the same molecule?
A: > 100 µM

Q: And the TGI (OVCAR-4 ovarian)?
A: > 100 µM

Q: And the TGI (CCRF-CEM leukemia)?
A: > 100 µM

Q: And the TGI (NCI-H460 lung)?
A: > 100 µM

Q: And the TGI (ACHN renal)?
A: > 100 µM

Q: What about the TGI (MOLT-4 leukemia) of the same molecule?
A: > 100 µM

Q: And the TGI (U251 CNS)?
A: > 100 µM

Q: And the TGI (DMS 114 small cell lung)?
A: > 100 µM

Q: What about the TGI (KM12 colon) of the same molecule?
A: > 100 µM

Q: And the TGI (OVCAR-3 ovarian)?
A: > 100 µM

Q: And the TGI (UACC-257 melanoma)?
A: > 100 µM

Q: And the TGI (MALME-3M melanoma)?
A: > 100 µM

Q: And the TGI (SF-295 CNS)?
A: > 100 µM

Q: And the TGI (786-0 renal)?
A: > 100 µM

Q: And the TGI (SR leukemia)?
A: > 100 µM

Q: What about the TGI (NCI-H226 lung) of the same molecule?
A: > 100 µM

Q: What about the TGI (XF 498 CNS) of the same molecule?
A: > 100 µM

Q: What about the TGI (OVCAR-8 ovarian) of the same molecule?
A: > 100 µM

Q: What about the TGI (SK-MEL-2 melanoma) of the same molecule?
A: > 100 µM

Q: And the TGI (CAKI-1 renal)?
A: > 100 µM

Q: And the TGI (SF-539 CNS)?
A: > 100 µM

Q: And the TGI (LOX IMVI melanoma)?
A: > 100 µM

Q: What about the TGI (NCI-H23 lung) of the same molecule?
A: > 100 µM

Q: Which TGI (NCI-H522 lung) does the source give for `CCN(CC)c1ccc2cc3ccc(=[N+](CC)CC)cc-3oc2c1` here?
A: 5.7 µM

Q: And the TGI (SK-MEL-28 melanoma)?
A: 10.3 µM

Q: What about the TGI (A549 NSCLC) of the same molecule?
A: 16.6 µM

Q: What about the TGI (DMS 273 small cell lung) of the same molecule?
A: 2.49 µM

Q: And the TGI (HCC-2998 colon)?
A: 19 µM

Q: What about the TGI (UO-31 renal) of the same molecule?
A: 8.52 µM

Q: What about the TGI (DLD-1 colon) of the same molecule?
A: 14.5 µM

Q: What about the TGI (SNB-78 CNS) of the same molecule?
A: 11.1 µM

Q: What about the TGI (SW-620 colon) of the same molecule?
A: 1.43 µM

Q: What about the TGI (SK-MEL-5 melanoma) of the same molecule?
A: 7.76 µM

Q: And the TGI (HCT-15 colon)?
A: 12.7 µM

Q: And the TGI (RXF 393 renal)?
A: 11.6 µM

Q: And the TGI (A498 renal)?
A: 29.8 µM

Q: What about the TGI (HOP-92 NSCLC) of the same molecule?
A: 3.13 µM

Q: What about the TGI (HCT-116 colon) of the same molecule?
A: 1.77 µM

Q: And the TGI (HL-60(TB) leukemia)?
A: 0.532 µM

Q: And the TGI (TK-10 renal)?
A: 17.2 µM

Q: What about the TGI (SF-268 CNS) of the same molecule?
A: 2.75 µM

Q: What about the TGI (SNB-19 CNS) of the same molecule?
A: 23.3 µM

Q: And the TGI (OVCAR-5 ovarian)?
A: 19.6 µM

Q: And the TGI (SK-OV-3 ovarian)?
A: 13.6 µM

Q: And the TGI (RPMI-8226 leukemia)?
A: 3.16 µM

Q: What about the TGI (SNB-75 CNS) of the same molecule?
A: 16.3 µM

Q: And the TGI (IGROV1 ovarian)?
A: 8.36 µM

Q: What about the TGI (EKVX NSCLC) of the same molecule?
A: 19.9 µM

Q: What about the TGI (HOP-62 NSCLC) of the same molecule?
A: 13.7 µM

Q: And the TGI (K-562 leukemia)?
A: > 100 µM

Q: And the TGI (COLO 205 colon)?
A: 2.05 µM

Q: And the TGI (HT29 colon)?
A: 4.48 µM

Q: What about the TGI (SN12C renal) of the same molecule?
A: 2.33 µM

Q: What about the TGI (OVCAR-4 ovarian) of the same molecule?
A: 26.1 µM

Q: What about the TGI (CCRF-CEM leukemia) of the same molecule?
A: 6.33 µM

Q: And the TGI (NCI-H460 lung)?
A: 6.62 µM

Q: What about the TGI (ACHN renal) of the same molecule?
A: 7.39 µM

Q: And the TGI (MOLT-4 leukemia)?
A: 2.09 µM

Q: What about the TGI (U251 CNS) of the same molecule?
A: 2.02 µM

Q: And the TGI (UACC-62 melanoma)?
A: 9.36 µM

Q: And the TGI (KM20L2 colon)?
A: 12.1 µM

Q: And the TGI (DMS 114 small cell lung)?
A: 3.8 µM

Q: And the TGI (KM12 colon)?
A: 1.92 µM

Q: And the TGI (OVCAR-3 ovarian)?
A: 2.11 µM

Q: What about the TGI (UACC-257 melanoma) of the same molecule?
A: 10.4 µM

Q: What about the TGI (MALME-3M melanoma) of the same molecule?
A: 2.78 µM

Q: And the TGI (SF-295 CNS)?
A: 16.3 µM

Q: What about the TGI (786-0 renal) of the same molecule?
A: 7.73 µM

Q: What about the TGI (SR leukemia) of the same molecule?
A: 1.52 µM

Q: And the TGI (NCI-H226 lung)?
A: 15.4 µM

Q: And the TGI (XF 498 CNS)?
A: 7.99 µM

Q: And the TGI (OVCAR-8 ovarian)?
A: 1.84 µM

Q: What about the TGI (LXFL 529 NSCLC) of the same molecule?
A: 1.79 µM

Q: And the TGI (SK-MEL-2 melanoma)?
A: 2.99 µM

Q: And the TGI (M14 melanoma)?
A: 6.03 µM

Q: What about the TGI (CAKI-1 renal) of the same molecule?
A: 18 µM

Q: And the TGI (SF-539 CNS)?
A: 5.12 µM

Q: And the TGI (LOX IMVI melanoma)?
A: 1.98 µM

Q: And the TGI (NCI-H23 lung)?
A: 3.04 µM
